Experimental data: ChEMBL document CHEMBL5335778, “Bench-to-bedside: Innovation of small molecule anti-SARS-CoV-2 drugs in China” (Eur J Med Chem, 2023)

Columns and labels:
[1] = Cytotoxicity against human MT4 cells assessed as reduction in cell viability treated for 5 days by MTT assay; assay type: toxicity, cell-based; conditions: time 5 day
[2] = tested on: Human immunodeficiency virus 1; test: Antiviral activity against HIV-1 3B infected in human MT4 cells assessed as reduction in virus-induced cytopathic effect incubated for 5 days by MTT assay; assay type: functional, organism-based; conditions: Human immunodeficiency virus 1, 3B, MT4, 120 h
[3] = Oral bioavailability in rat; assay type: ADME, organism-based; conditions: in vivo
SARS-CoV-2 [4] = test: Antiviral activity against SARS-CoV-2 Omicron assessed as reduction of viral growth; assay type: functional, organism-based; conditions: Severe acute respiratory syndrome coronavirus 2, Omicron
[5] = biological target: Human immunodeficiency virus type 1 protease (Human immunodeficiency virus 1, UniProt Q72874); test: Inhibition of HIV-1 protease
SARS-CoV-2 [6] = test: Antiviral activity against SARS-CoV-2 in human A549-ACE2 cells assessed as reduction in viral growth; assay type: functional, organism-based; conditions: Severe acute respiratory syndrome coronavirus 2, A549-ACE2
SARS-CoV-2 [7] = test: Antiviral activity against SARS-CoV-2 B.1 infected in Green monkey VeroE6/TMPRSS2 cells assessed as inhibition of viral replication incubated for 2 days by qRT-PCR analysis; assay type: functional, organism-based; conditions: Severe acute respiratory syndrome coronavirus 2, B.1, VeroE6/TMPRSS2, 48 h
SARS-CoV-2 [8] = test: Antiviral activity against SARS-Co-V-2 infected in Vero E6 cells assessed as reduction in viral replication; assay type: functional, organism-based; conditions: Severe acute respiratory syndrome coronavirus 2, Vero C1008
SARS-CoV-2 [9] = test: Antiviral activity against SARS-CoV-2 infected in human A549-ACE2 cells; assay type: functional, organism-based; conditions: Severe acute respiratory syndrome coronavirus 2, A549-ACE2
Hepatitis C virus = test: Antiviral activity against HCV infected in human Huh-7.5.1 cells assessed as reduction in viral infection incubated for 48 hrs by MTS assay; assay type: functional, organism-based, Hepacivirus hominis; conditions: Huh-7.5.1, 48 h
[10] = Inhibition of DENV RNA-dependent RNA polymerase activity; set-up: species or system Dengue virus
[11] = Oral bioavailability in Beagle dog at 3 mg/kg; assay type: ADME, organism-based, Canis lupus familiaris; conditions: in vivo
[12] = Cytotoxicity against African green monkey Vero E6 cells assessed as cell growth inhibition measured after 48 hrs by CCK-8 assay; assay type: toxicity, cell-based, Vero C1008; conditions: chlorocebus sabaeus
SARS-CoV-2 [13] = test: Antiviral activity against SARS-COV-2 infected in African green monkey Vero E6 cells assessed as reduction in viral growth; assay type: functional, organism-based; conditions: Severe acute respiratory syndrome coronavirus 2, Vero C1008
[14] = Selectivity index, ratio of CC50 for African green monkey Vero cells to EC50 for SARS-COV-2; assay type: cell-based; conditions: read-out: Ratio CC50/EC50
[15] = Oral bioavailability in Sprague-Dawley rat at 3 mg/kg by HPLC analysis; assay type: ADME, organism-based; conditions: in vivo
[16] = Oral bioavailability in human at 2 mg; assay type: ADME, organism-based; conditions: in vivo
SARS-CoV-2 [17] = test: Antiviral activity against SARS-CoV-2 infected in African green monkey Vero E6 cells assessed as reduction in infection measured after 24 hrs by Plaque assay; assay type: functional, organism-based; conditions: Severe acute respiratory syndrome coronavirus 2, Vero C1008, 24 h
[18] = Oral bioavailability in rat at 2 mg/kg by LC-MS/MS analysis; assay type: ADME, organism-based; conditions: in vivo
[19] = Oral bioavailability in monkey at 3 mg/kg, HPLC analysis; assay type: ADME, organism-based, Macaca mulatta; conditions: rhesus monkey, in vivo
[20] = Plasma protein binding in rat assessed as free fraction by equilibrium dialysis analysis; assay type: ADME, cell-free
SARS-CoV-2 [21] = test: Antiviral activity against luciferase-expressing pseudovirus encoding SARS-CoV-2 Omicron expressing S protein infected in human 293T/ACE2 cells assessed as reduction of viral growth measured after 48 hrs by luciferase assay; assay type: functional, organism-based; conditions: Severe acute respiratory syndrome coronavirus 2, 293T/ACE2, 48 h
SARS-CoV-2 [22] = test: Antiviral activity against SARS-CoV-2 infected in African green monkey Vero E6 cells assessed as reduction in cell growth; assay type: functional, organism-based; conditions: Severe acute respiratory syndrome coronavirus 2, Vero C1008
SARS-CoV-2 [23] = test: Antiviral activity against SARS-CoV-2 infected in human A549-ACE2 cells assessed as reduction in viral replication; assay type: functional, organism-based; conditions: Severe acute respiratory syndrome coronavirus 2, A549-ACE2
[24] = tested on: Respiratory syncytial virus; test: Antiviral activity against Respiratory syncytial virus; assay type: functional, organism-based; conditions: human respiratory syncytial virus
[25] = Inhibition of HIV-1 […]; set-up: species or system Human immunodeficiency virus 1
Replicase polyprotein 1a = Replicase polyprotein 1a (Severe acute respiratory syndrome-related coronavirus, UniProt P0C6U8); test: Inhibition of SARS-CoV 3CLpro
[26] = biological target: Replicase polyprotein 1ab (Severe acute respiratory syndrome coronavirus 2, UniProt P0DTD1); test: Inhibition of N-terminal His6-tagged recombinant full length SARS-CoV-2 3CLpro expressed in Escherichia coli BL21(DE3) using MCA-AVLQSGFR-Lys(Dnp)-Lys-NH2 as fluorogenic substrate preincubated with compound for 10 mins followed by substrate addition by FRET assay
SARS-CoV-2 [27] = test: Antiviral activity against SARS-CoV-2 infected in Vero E6 cells assessed as reduction in viral replication; assay type: functional, organism-based; conditions: Severe acute respiratory syndrome coronavirus 2, Vero C1008

SMILES: [2H]c1cc([C@]2(C#N)O[C@H](CO)[C@@H](O)[C@H]2O)n2ncnc(N)c12
- CC50 at 120 h [1]: > 500000 nM
- EC50 [2]: 390 nM
- bioavailability [3]: 21.7%

SMILES: O=C1C=C(Nc2ccccc2C2CCNCC2)C2=NS(=O)(=O)c3cccc1c32
- EC50 (SARS-CoV-2 [4]): 33 nM

SMILES: [N-]=[N+]=N[C@]1(CO)O[C@@H](n2ccc(N)nc2=O)[C@H](O)[C@@H]1O [4'-AZIDOCYTIDINE]
- IC50 [5]: 1280 nM

SMILES: COc1ccc2cc1Oc1ccc(cc1)C[C@H]1c3c(cc4c(c3Oc3cc5c(cc3OC)CCN(C)[C@@H]5C2)OCO4)CCN1C [CEPHARANTHINE]
- IC50 (SARS-CoV-2 [6]): 240 nM
- IC50 (SARS-CoV-2 [7]): 1900 nM
- EC50 (SARS-CoV-2 [8]): 980 nM
- IC50 (SARS-CoV-2 [9]): 240 nM
- IC50 (Hepatitis C virus): 60 nM

SMILES: Br.[2H]c1cc([C@]2(C#N)O[C@H](COC(=O)C(C)C)[C@@H](OC(=O)C(C)C)[C@H]2OC(=O)C(C)C)n2ncnc(N)c12 [DEUREMIDEVIR HYDROBROMIDE]
- EC50 [10]: 240 nM
- EC50 [2]: 240 nM
- bioavailability [11]: 80%
- bioavailability [3]: 80%

SMILES: CC[C@H](C)[C@@H](C(=O)O[C@@H](CC(C)C)C(=O)N[C@@H](CC(C)C)C(=O)N[C@@H](C)/C=C/C(=O)N1C(=O)C=C(OC)[C@@H]1C)N(C)C [GALLINAMIDE A]
- CC50 at 48 h [12]: 88 nM
- EC50 (SARS-CoV-2 [13]): 28 nM

SMILES: N#C[C@@]1(c2ccc3c(N)ncnn23)O[C@H](CO)[C@@H](O)[C@H]1O [GS-441524]
- selectivity ratio [14]: > 1280
- bioavailability [15]: 16%
- bioavailability [16]: 13%
- EC50 (SARS-CoV-2 [17]): 390 nM
- CC50 at 120 h [1]: > 500000 nM
- bioavailability [18]: 50%
- EC50 [2]: 590 nM
- bioavailability [19]: < 8%
- fraction unbound [20]: 0.62

SMILES: CC[C@H](C)[C@H]1NC(=O)[C@@H](NC(=O)[C@@H](CC(C)C)N(C)C(=O)[C@@H]2CCCN2C(=O)C(C)=O)[C@@H](C)OC(=O)[C@H](Cc2ccc(OC)cc2)N(C)C(=O)[C@@H]2CCCN2C(=O)[C@H](CC(C)C)NC(=O)[C@@H](C)C(=O)[C@H](C(C)C)OC(=O)C[C@@H]1O [PLITIDEPSIN]
- EC50 (SARS-CoV-2 [21]): 350 nM
- EC50 (SARS-CoV-2 [22]): 0.7 nM
- EC50 (SARS-CoV-2 [23]): 100 nM

SMILES: N#C[C@@]1(c2ccc3c(N)ncnn23)O[C@H](COP(=O)(O)OP(=O)(O)OP(=O)(O)O)[C@@H](O)[C@H]1O [RDV-TP]
- EC50 [24]: 13 nM

SMILES: [N-]=[N+]=N[C@]1(CO)O[C@@H](n2ccc(N)nc2=O)[C@@H](F)[C@@H]1O [RO-0622]
- EC50 [25]: 1200 nM

SMILES: O=C(OC[C@H]1O[C@@H](OC(=O)c2cc(O)c(O)c(OC(=O)c3cc(O)c(O)c(O)c3)c2)[C@H](OC(=O)c2cc(O)c(O)c(OC(=O)c3cc(O)c(O)c(O)c3)c2)[C@@H](OC(=O)c2cc(O)c(O)c(OC(=O)c3cc(O)c(O)c(O)c3)c2)[C@@H]1OC(=O)c1cc(O)c(O)c(OC(=O)c2cc(O)c(O)c(O)c2)c1)c1cc(O)c(O)c(OC(=O)c2cc(O)c(O)c(O)c2)c1 [TANNIC ACID]
- EC50 (Replicase polyprotein 1a): 8310 nM
- EC50 [26]: 585 nM
- EC50 (SARS-CoV-2 [27]): 12900 nM

SMILES: N#Cc1cn([C@@H]2O[C@H](CO)[C@@H](O)[C@H]2O)c2ncnc(N)c12 [TOYOCAMYCIN]
- EC50 (SARS-CoV-2 [17]): 590 nM

SMILES: Nc1ncnc2c1ccn2[C@@H]1O[C@H](CO)[C@@H](O)[C@H]1O [TUBERCIDIN]
- EC50 (SARS-CoV-2 [17]): 590 nM
